Results from patent publication US5541183A, “Ginkgolide derivatives” (priority 1993, dated 1996).
Where two headings read alike, the source gives them in different places. Values belong to the molecule of their own block, whether it stands above or below them.

Legend:
[1] = test system: PAF-induced rabbit platelet aggregation; experiment: PAF-induced rabbit platelet aggregation; format: cell-based, rabbit (New Zealand white); conditions: Oryctolagus cuniculus, read-out: IC50, inhibition of PAF-induced rabbit platelet aggregation
Procedure: Pharmacology Example 1: PAF-induced rabbit platelet aggregation
Blood was collected from the ear artery of a male New Zealand white rabbit and mixed with 3.8% sodium citrate in a 9:1 volume ratio. Platelet rich plasma (PRP) was obtained by centrifugation of the blood at 150 g for 10 min at room temperature. The number of platelets was adjusted to 3×10^8 platelets/ml with platelet poor plasma. Platelet aggregation was monitored by continuous recording of light transmission in a dual-channel aggregometer (Chrono-Log 560-VS) coupled with a two channel recorder (Chrono-Log 707). Stirred PRP was treated with various concentrations of the test compounds or vehicle (0.5% DMSO) for 2 min and then PAF(5×10^-9 M) was added to induce platelet aggregation.
Inhibition values were calculated by comparing the extent of aggregation obtained in the presence of the vehicle alone (0.5% DMSO) and in the presence of a test compound. Log concentration-response curves were generated and the IC50 values were determined by regression analysis.
Table 1 lists results from this assay for inhibition of PAF-induced rabbit platelet aggregation for illustrative examples of the compounds of this invention.

[2] = test system: Ag-induced bronchoconstriction; experiment: Ag-induced bronchoconstriction in the guinea pig; format: in vivo, guinea pig (Hartley strain); conditions: for ED50: Cavia porcellus, iv, 10 min, read-out: ID50, Ag-induced bronchoconstriction
Procedure: Pharmacology Example 3: Ag-induced bronchoconstriction
All experiments utilized male guinea pigs (Hartley strain), weighing 350 to 500 g. The animal was passively sensitized with rabbit anti-chicken egg albumin (1.3 mg/kg), 17-24 hrs before ovaibumin challenge. Passively sensitized animals were anesthetized with ethyl carbamate 1.5 g/kg, i.p.). An intratracheal cannula was inserted into trachea and indwelling catheters were inserted into the right carotid artery and left jugular vein. The animals were ventilated with a small animal respirator (UGO BASILE 7025, 70 breaths/min, 1 ml/stroke/100 g). To monitor dead or not, mean arterial pressure was measured continuously with a pressure transducer (Physiological Pressure Transducer, MICRON INSTRUMENT MP-15) connected to an amplifier (COULBOURN INSTRUMENT 572-25) and recorder (COULBOURN INSTRUMENT R14-18). The rate of bronchoconstriction was measured as an increase in lung overflow with a bronchospasm transducer (UGO BASILE 7020) from a side arm off the tracheal cannula, and expressed as a percentage of maximum broncoconstriction obtained by clamping off the tracheal cannular. Test compounds or vehicle (0.5% DMSO) were administered through the cannula into the jugular vein and ovalbumin (1.0 mg/kg, i.v.) was administered 10 minutes later. Bronchoconstriction response was compared to that obtained with control group treated with vehicle. Percent inhibition was calculated for each dose. If necessary, log dose-response curves were generated and the ID50 values were determined by regression analysis.

[3] = test system: PAF-induced bronchoconstriction; experiment: PAF-induced bronchoconstriction in the guinea pig; format: in vivo, guinea pig (Hartley strain); conditions: for % inhibition of PAF-induced bronchoconstriction: jugular vein, PAF 100 ng/kg i.v.
Procedure: Pharmacology Example 2: PAF-induced bronchoconstriction
All experiments utilized male guinea pigs (Hartley strain), weighing 350 to 450 g, that were anesthetized with ethyl carbamate (1.5 g/kg, i.p.). An intratracheal cannula was inserted into trachea and indwelling catheters were inserted into the right carotid artery and left jugular vein. The animals were ventilated with a small animal respirator (UGO BASILE 7025, 70 breaths/min, 1 ml/stroke/100 g). To monitor dead or not, mean arterial pressure was measured continuously with a pressure transducer (Physiological Pressure Transducer, MICRON INSTRUMENT MP-15) connected to an amplifier (COULBOURN INSTRUMENT 572-25) and recorder (COULBOURN INSTRUMENT R14-18). The rate of bronchoconstriction was measured as an increase in lung overflow with a bronchospasm transducer (UGO BASILE 7020) from a side arm off the tracheal cannula, and expressed as a percentage of maximum bronchoconstriction obtained by clamping off the tracheal cannula. Test compounds or vehicle (0.5% DMSO) were administered through the cannula into the jugular vein and PAF (100 ng/kg, i.v.) was administered. Bronchoconstriction response was compared to that obtained with control group treated with vehicle. Percent inhibition was calculated for each dose. Log dose-response curves were generated and the ID50 values were determined by regression analysis, and the results are presented in Table 2.
Table 2: Results for inhibition of PAF-induced bronchoconstriction in the guinea pig.

bronchial eosinophilia = experiment: aeroallergen-induced bronchial infiltration of eosinophils in the bronchoalveolar lavage fluid; format: in vivo, guinea pig (Hartley strain); conditions: 30 mg/kg p.o., + 4h after aeroallergen challenge
Procedure: Pharmacology Example 4: The aeroallergen-induced bronchial infiltration of eosinophils in the bronchoalveolar lavage fluid.
Adult, male Hartley-strain guinea pigs weighing 492-735 g were sensitized by intraperitoneal injection of 10 μg ovalbumin (OA) mixed in 100-mg aluminum hydroxide. And guinea pigs were pretreated with pyrilamine (1.0 mg/kg) intraperitoneally 30 min. before aeroallergen challenge. Individual guinea pigs were placed in a two-liter glass chamber and exposed to a five aerosol of OA solution (0.5 mg/ml in saline containing 0.02% antifoal emulsion for a period of 10 min.).
4 hours after aero allergen challenge, the guinea pigs received either vehicle or compounds suspended in 1% acacia by oral garage.
24 hours after aero allergen challenge, the animals were euthanized with an i.p. overdose of pentobarbital sodium (100 mg/kg). The abdominal cavity was opened, and the animal was exsaguinated by cutting the abdominal aorta. A midline incision was made through the rib cage, exposing the heart and lungs.
The trachea was cannulated with an 18-gauge stainless steel feeding tube; 20 ml/kg of prewarmed (37° C.) physiological saline was instilled and the BALF was gently withdrawn.
BALF (amounting to 60-80% of the saline infused) was transferred to a 10 ml vacutainer containing 0.10 ml of 15% EDTA solution and centrifugated at 2400 rpm for 10 min.
The supernatant was poured off, and the cell pellet was suspended in physiological saline equal to the ratio of BALF recovered (ml) and physiological saline instilled in the lungs (ml), multiplied by two.
The eosinophils in BALF were counted by Unopette Test 5877.
The mean numbers of eosinophils±SEM in the BALF of compound-treated animals and corresponding control "vehicle"-treated animals were compared by Student's t-test. A P value of 0.05 or less was considered significant. Table 4 lists results from this assay for inhibition of bronchial eosinophilia for illustrative examples of this invention.

[4] = 0.1 mg/kg, jugular vein, ovalbumin 1.0 mg/kg i.v. 10 minutes later
[5] = 0.5 mg/kg, jugular vein, ovalbumin 1.0 mg/kg i.v. 10 minutes later
[6] = 1.0 mg/kg, jugular vein, ovalbumin 1.0 mg/kg i.v. 10 minutes later
[7] = jugular vein, ovalbumin 1.0 mg/kg i.v. 10 minutes later

Compound: CC1C(=O)OC2C(O)C34C5CC(C(C)(C)C)C36C(OC(=O)C6OCc3ccccn3)OC4(C(=O)O5)C12O (centres unmarked) [Example 99, 10-(2-pyridinyl)-methoxy-Ginkgolide B]
- IC50 [1]: 30.7 nM
- % inhibition of Ag-induced bronchoconstriction [2, 4]: 42%
- % inhibition of Ag-induced bronchoconstriction [2, 5]: 73%
- % inhibition of Ag-induced bronchoconstriction [2, 6]: 100%
- ED50 [2]: 0.31 mg/kg

Compound: COCCOCOc1ccc(COC2C(=O)OC3OC45C(=O)OC6CC(C(C)(C)C)C32C64C(O)C2OC(=O)C(C)C25O)nc1 (centres unmarked) [Example 114]
- IC50 [1]: 139 nM

Compound: CC1C(=O)OC2C(O)C34C5CC(C(C)(C)C)C36C(OC(=O)C6OCCBr)OC4(C(=O)O5)C12O (centres unmarked) [Example 116, 10-(2'-bromoethoxy)-Ginkgolide B]
- IC50 ([1]; rabbit PRP, PAF 5×10^-9 M): 113 nM

Compound: CC1C(=O)OC2C(O)C34C5CC(C(C)(C)C)C36C(OC(=O)C6OCCI)OC4(C(=O)O5)C12O (centres unmarked) [Example 117, 10-(2'-iodoethoxy)-Ginkgolide B]
- IC50 [1]: 53.4 nM

Compound: CC1C(=O)OC2C(O)C34C5CC(C(C)(C)C)C36C(OC(=O)C6OCCN3CCCCC3)OC4(C(=O)O5)C12O (centres unmarked) [Example 118, 10-(2'-(1"-piperidinyl)-ethoxy)-Ginkgolide B]
- IC50 ([1]; rabbit PRP, PAF 5×10^-9 M): 47.1 nM

Compound: CC1C(=O)OC2C(O)C34C5CC(C(C)(C)C)C36C(OC(=O)C6OCCN3CCOCC3)OC4(C(=O)O5)C12O (centres unmarked) [Example 119, 10-(2'-(1"-morpholinyl)-ethoxy)-Ginkgolide B]
- IC50 ([1]; rabbit PRP, PAF 5×10^-9 M): 54.1 nM

Compound: CC1C(=O)OC2C(O)C34C5CC(C(C)(C)C)C36C(OC(=O)C6OCCN3CCNCC3)OC4(C(=O)O5)C12O (centres unmarked) [Example 121, 10-(2'-(1"-piperazinyl)-ethoxy)-Ginkgolide B]
- IC50 ([1]; rabbit PRP, PAF 5×10^-9 M): 57.1 nM

Compound: CC1C(=O)OC2C(O)C34C5CC(C(C)(C)C)C36C(OC(=O)C6O)OC4(C(=O)O5)C12O (centres unmarked) [Ginkgolide B, reference compound]
- IC50 ([1]; rabbit PRP, PAF 5×10^-9 M): 258 nM
- % inhibition of PAF-induced bronchoconstriction ([3]; 0.50 mg/kg): 38%
- % inhibition of PAF-induced bronchoconstriction ([3]; 1.00 mg/kg): 64%
- % inhibition of PAF-induced bronchoconstriction ([3]; 2.00 mg/kg): 100%
- ED50 ([3]; Cavia porcellus, iv, read-out: ID50, PAF-induced bronchoconstriction): 0.6 mg/kg
- % inhibition of Ag-induced bronchoconstriction [2, 4]: 10%
- % inhibition of Ag-induced bronchoconstriction [2, 5]: 42%
- % inhibition of Ag-induced bronchoconstriction [2, 6]: 82%
- ED50 [2, 7]: 0.83 mg/kg
- % Inhibition of bronchial eosinophilia (bronchial eosinophilia; at 24 hours): 0%
- Eosinophils in BALF (Mean ± SEM) (bronchial eosinophilia; counted at 24 hours, vehicle 927 ± 131): 1148 ± 305 10^3 cells/m1 BALF

The next lines start with results.

- IC50 ([1]; rabbit PRP, PAF 5×10^-9 M): 38.9 nM
Compound: COc1c(C)cnc(COC2C(=O)OC3OC45C(=O)OC6CC(C(C)(C)C)C32C64C(O)C2OC(=O)C(C)C25O)c1C (centres unmarked) [Example 97, 10-(4-methoxy-3,5-dimethyl-2-pyridinyl) -methoxy-Ginkgolide B]
- % inhibition of Ag-induced bronchoconstriction [2, 4]: 30%
- % inhibition of Ag-induced bronchoconstriction [2, 5]: 68%
- % inhibition of Ag-induced bronchoconstriction [2, 6]: 100%
- ED50 [2, 7]: 0.42 mg/kg

- IC50 ([1]; rabbit PRP, PAF 5×10^-9 M): 87.7 nM
Compound: Cc1cnc(COC2C(=O)OC3OC45C(=O)OC6CC(C(C)(C)C)C32C64C(O)C2OC(=O)C(C)C25O)c(C)c1N (centres unmarked) [Example 103, 10-(3,5-dimethyl-4-amino-2-pyridinyl)-methoxy-Ginkgolide B]
- % inhibition of Ag-induced bronchoconstriction [2, 4]: 10%
- % inhibition of Ag-induced bronchoconstriction [2, 5]: 62%
- % inhibition of Ag-induced bronchoconstriction [2, 6]: 97%
- ED50 [2, 7]: 0.48 mg/kg

- IC50 ([1]; rabbit PRP, PAF 5×10^-9 M): 157 nM
Compound: CC1C(=O)OC2C(O)C34C5CC(C(C)(C)C)C36C(OC(=O)C6OCc3ccc(Cl)nc3)OC4(C(=O)O5)C12O (centres unmarked) [Example 107, 10-(6-chloro-3-pyridinyl)-methoxy-Ginkgolide B]

- IC50 ([1]; rabbit PRP, PAF 5×10^-9 M): 134 nM
Compound: CC1C(=O)OC2C(O)C34C5CC(C(C)(C)C)C36C(OC(=O)C6OCc3cccnc3)OC4(C(=O)O5)C12O (centres unmarked) [Example 108, 10-(3-pyridinyl)-methoxy-Ginkgolide B]

- IC50 ([1]; rabbit PRP, PAF 5×10^-9 M): 122 nM
Compound: CC1C(=O)OC2C(O)C34C5CC(C(C)(C)C)C36C(OC(=O)C6OCc3ccncc3)OC4(C(=O)O5)C12O (centres unmarked) [Example 109, 10-(4-pyridinyl)-methoxy-Ginkgolide B]

- IC50 ([1]; rabbit PRP, PAF 5×10^-9 M): 157 nM
Compound: CCOc1ccnc(COC2C(=O)OC3OC45C(=O)OC6CC(C(C)(C)C)C32C64C(O)C2OC(=O)C(C)C25O)c1 (centres unmarked) [Example 110]

- IC50 ([1]; rabbit PRP, PAF 5×10^-9 M): 107 nM
Compound: CC1C(=O)OC2C(O)C34C5CC(C(C)(C)C)C36C(OC(=O)C6OCc3cc([N+](=O)[O-])ccn3)OC4(C(=O)O5)C12O (centres unmarked) [Example 111, 10-(4-nitro-2-myridinyl)-methoxy Ginkgolide B]

- IC50 ([1]; rabbit PRP, PAF 5×10^-9 M): 124 nM
Compound: CCCOc1ccc(C)nc1COC1C(=O)OC2OC34C(=O)OC5CC(C(C)(C)C)C21C53C(O)C1OC(=O)C(C)C14O (centres unmarked) [Example 112]

- IC50 ([1]; rabbit PRP, PAF 5×10^-9 M): 111 nM
Compound: CC1C(=O)OC2C(O)C34C5CC(C(C)(C)C)C36C(OC(=O)C6OCc3cc(NO)ccn3)OC4(C(=O)O5)C12O (centres unmarked) [Example 113, 10-(2-(4-hydroxyaminopyridinyl)-methoxy)-Ginkgolide B]

- IC50 ([1]; rabbit PRP, PAF 5×10^-9 M): 62.1 nM
Compound: CC1C(=O)OC2C(O)C34C5CC(C(C)(C)C)C36C(OC(=O)C6OCCn3cncn3)OC4(C(=O)O5)C12O (centres unmarked) [Example 120, 10-(2'-(1"-(1",2",4"-triazolyl)-ethoxy))-Ginkgolide B]

- IC50 ([1]; rabbit PRP, PAF 5×10^-9 M): 56.1 nM
Compound: CC1C(=O)OC2C(O)C34C5CC(C(C)(C)C)C36C(OC(=O)C6OCCN3CCCC3)OC4(C(=O)O5)C12O (centres unmarked) [Example 122, 10-(2'-(1"-pyrrolidinyl)-ethoxy)-Ginkgolide B]
